Consider 20 compounds from patent publication US7169942B2, “Cannabinoid derivatives, methods of making, and use thereof” (priority 2003, dated 2007).

A word on the Ki: it is the equilibrium dissociation constant of an inhibitor or competing ligand from its target.

Read-outs that look alike come from different tables or passages of the source.

For one test, the target named is T1, human CB2 receptor (Homo sapiens, UniProt P34972).
T1 construct: purchased Perkin-Elmer Life Sciences, Inc. Lot #1930
Put plainly: CB2 receptor binding assay, displacement of [3H]CP 55,940. On the technique in general: Displacement assays read how much labelled ligand stays bound in the presence of the test substance.

The target of a further test is T2, human CB1 receptor (Homo sapiens, UniProt P21554).
T2 construct: purchased Perkin-Elmer Life Sciences, Inc. Lot #1929; host or cells: HEK293 (HEK293 EBNA according to b236 for compounds 33-36)
Briefly: biochemical. The test is classed as binding.

In test [1] the test system is rat hemorrhagic shock model. Put plainly: Rat hemorrhagic shock model. The note with it: FIG. 22.
The next test concerns the target CB1 (Rattus norvegicus, UniProt P20272). The note with it: literature value, highly potent CB1 analogs; read-out: Ki of reference cannabinoid; cited from earlier work.
In another test the test system is C6 glioma cells. Put plainly: Cytotoxicity on C6 glioma cells (MTS, CellTiter 96). Particulars: concentrations of 8 μM.
[2] abbreviates: Table 3, human receptor in HEK293 EBNA cell membranes, three experiments in duplicate, SEM in parentheses.
[3] abbreviates: Table 1, affinity ratio of Ki values.
Where [4] appears, read: Table 1, membranes of HEK293 cells with human CB1, SEM in parentheses, n≧2 in triplicate, read-out: CB1 Ki.
The mark [5] stands for this setting: Table 3, human receptor in HEK293 EBNA cell membranes, three experiments in duplicate, SEM in parentheses, read-out: CB2 Ki.
Where [6] appears, read: Table 3, human receptor in HEK293 EBNA cell membranes, three experiments in duplicate, SEM in parentheses, read-out: CB1 Ki.
Where [7] appears, read: Table 8, SEM in parentheses, n≧2 in triplicate.
The mark [8] stands for this setting: Table 8, SEM in parentheses, n≧2 in triplicate, read-out: CB1 Ki.

T1 sequence (P34972 whole entry): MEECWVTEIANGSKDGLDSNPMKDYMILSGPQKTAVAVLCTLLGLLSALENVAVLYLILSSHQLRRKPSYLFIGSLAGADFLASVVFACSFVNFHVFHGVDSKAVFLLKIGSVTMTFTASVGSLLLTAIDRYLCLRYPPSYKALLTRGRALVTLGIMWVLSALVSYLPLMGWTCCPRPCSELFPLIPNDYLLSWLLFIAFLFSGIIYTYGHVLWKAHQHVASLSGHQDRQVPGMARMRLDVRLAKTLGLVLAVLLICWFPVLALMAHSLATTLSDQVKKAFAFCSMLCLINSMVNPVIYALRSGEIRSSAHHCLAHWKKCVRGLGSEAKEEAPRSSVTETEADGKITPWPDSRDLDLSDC
T2 sequence (P21554 whole entry): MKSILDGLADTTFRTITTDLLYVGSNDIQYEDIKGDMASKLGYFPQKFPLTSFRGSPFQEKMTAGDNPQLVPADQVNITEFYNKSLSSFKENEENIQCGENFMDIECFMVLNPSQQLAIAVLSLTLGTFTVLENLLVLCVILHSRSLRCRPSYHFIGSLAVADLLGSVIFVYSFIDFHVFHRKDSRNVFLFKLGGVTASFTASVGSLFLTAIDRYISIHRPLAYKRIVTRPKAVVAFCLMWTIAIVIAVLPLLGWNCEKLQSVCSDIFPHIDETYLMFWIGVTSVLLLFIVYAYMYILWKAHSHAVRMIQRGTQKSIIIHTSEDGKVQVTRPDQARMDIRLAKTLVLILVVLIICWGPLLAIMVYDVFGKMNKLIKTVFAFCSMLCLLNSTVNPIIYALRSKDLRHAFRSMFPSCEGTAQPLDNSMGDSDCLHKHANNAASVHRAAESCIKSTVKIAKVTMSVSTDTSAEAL
Chain of CB1 (P20272 whole entry): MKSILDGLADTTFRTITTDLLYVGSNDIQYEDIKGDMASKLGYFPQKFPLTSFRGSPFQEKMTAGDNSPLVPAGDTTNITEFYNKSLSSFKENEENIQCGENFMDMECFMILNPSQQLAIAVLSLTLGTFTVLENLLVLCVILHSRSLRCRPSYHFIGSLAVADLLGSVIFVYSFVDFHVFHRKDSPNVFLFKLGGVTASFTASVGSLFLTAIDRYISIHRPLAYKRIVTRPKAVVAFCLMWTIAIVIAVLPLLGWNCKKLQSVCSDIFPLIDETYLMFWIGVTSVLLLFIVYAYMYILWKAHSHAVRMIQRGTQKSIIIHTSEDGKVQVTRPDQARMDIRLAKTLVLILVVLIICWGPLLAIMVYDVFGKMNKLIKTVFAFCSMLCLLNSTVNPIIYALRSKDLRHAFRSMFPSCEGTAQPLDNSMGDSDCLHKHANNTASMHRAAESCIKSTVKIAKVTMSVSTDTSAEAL

For the compound `CCCCC(=O)c1cc(OC)cc(OC)c1` [Compound 5, 1-(3,5-Dimethoxy-phenyl)-pentan-1-one], at human CB2 receptor (setting [2]), the “CB2 Ki” value is given as “significantly reduced binding affinities”. At human CB1 receptor (setting [2]), the “CB1 Ki” value is recorded as “significantly reduced binding affinities”.

`CCCCC1(c2cc(O)c3c(c2)OC(C)(C)C2CC=C(C)CC32)SCCS1` (centres unmarked) [Compound 23, 3-(2-Butyl-[1,3]dithiolan-2-yl)-6,6,9-trimethyl-6a,7,10,10a-tetrahydro-6H-benzo[c]chromen-1-ol]: at human CB2 receptor, the affinity corresponds to a Ki of 0.58 nM, the “fold increase in binding to the CB2 receptor relative to Δ8-THC” value was 47 fold and the “fold increased affinity for the CB2 receptor relative to the carbon equivalent 24” value worked out at 11 fold. Moreover, on human CB2 receptor (Table 1, membranes of CHO-K1 cells with human CB2, SEM in parentheses, n≧2 in triplicate), the “CB2 Ki” value is on record as “sub-nanomolar”. For the same compound, on human CB1 receptor, the “fold increase in binding to the CB1 receptor relative to Δ8-THC” value is 33 fold and the “fold increased affinity for the CB1 receptor relative to the carbon equivalent 24” value is 4.7 fold. Besides, the “Ratio CB1/CB2” value on human CB1 receptor (setting [3]) is reported as 1.47. Moreover, the “CB1 Ki” value on human CB1 receptor (Table 1, membranes of HEK293 cells with human CB1, SEM in parentheses, n≧2 in triplicate) was “sub-nanomolar”. Besides, on human CB1 receptor (setting [4]), the Ki was 0.85 nM.

As to `CC1=CCC2C(C1)c1c(O)cc(C3(C4CCCC4)SCCS3)cc1OC2(C)C` (centres unmarked) [Compound 24, 3-(2-Cyclopentyl-[1,3]dithiolan-2-yl)-6,6,9-trimethyl-6a,7,10,10a-tetrahydro-6H-benzo[c]chromen-1-ol], the Ki was 2.74 nM at human CB2 receptor and 9.49 nM at human CB1 receptor (setting [4]). On human CB2 receptor, the “fold decrease in affinity at the CB2 receptor (dithiolane ring)” value came to 7 fold. The “Ratio CB1/CB2” value at human CB1 receptor (setting [3]) is 3.46.

Turning to `CC1=CCC2C(C1)c1c(O)cc(C3(C4CCCCC4)SCCS3)cc1OC2(C)C` (centres unmarked) [Compound 25, 3-(2-Cyclohexyl-[1,3]dithiolan-2-yl)-6,6,9-trimethyl-6a,7,10,10a-tetrahydro-6H-benzo[c]chromen-1-ol], the Ki at human CB2 receptor amounted to 1.05 nM; on human CB1 receptor (setting [4]), 1.86 nM. Moreover, the “Ratio CB1/CB2” value at human CB1 receptor is on record as 1.77. In test [1] (12 mg/kg in combination with NS-398 2 mg/kg), the “change in mean blood pressure versus time relative to positive control Δ8-THC and NS-398” value is recorded as “improved behavior relative to the positive control”.

As to `CC1=CCC2C(C1)c1c(O)cc(C3(C4CCCCCC4)SCCS3)cc1OC2(C)C` (centres unmarked) [Compound 26, 3-(2-Cycloheptyl-[1,3]dithiolan-2-yl)-6,6,9-trimethyl-6a,7,10,10a-tetrahydro-6H-benzo[c] chromen-1-ol], on human CB2 receptor, affinity was put at a Ki of 6.62 nM and the “fold decrease in affinity at the CB2 receptor (dithiolane ring)” value worked out at 33 fold. Moreover, on human CB1 receptor (setting [3]), the “Ratio CB1/CB2” value was 0.27. At human CB1 receptor (setting [4]), the Ki amounted to 1.76 nM.

In the case of `CC1=CCC2C(C1)c1c(O)cc(C(C)(C)C3CCCC3)cc1OC2(C)C` (centres unmarked) [Compound 27, 3-(1-Cyclopentyl-1-methyl-ethyl)-6,6,9-trimethyl-6a,7,10,1a-tetrahydro-6H-benzo[c]chromen-1-ol], the Ki on human CB2 receptor (Table 1, membranes of CHO-K1 cells with human CB2, SEM in parentheses, n≧2 in triplicate, read-out: CB2 Ki) came out at 0.39 nM; on human CB1 receptor (read-out: CB1 Ki) it was 0.34 nM. On human CB1 receptor (setting [3]), the “Ratio CB1/CB2” value was determined as 0.84.

As for `CC1=CCC2C(C1)c1c(O)cc(C(C)(C)C3CCCCC3)cc1OC2(C)C` (centres unmarked) [Compound 28, 3-(1-Cyclohexyl-1-methyl-ethyl)-6,6,9-trimethyl-6a,7,10,10a-tetrahydro-6H-benzo[c]chromen-1-ol], the results for the Ki on human CB2 receptor and at human CB1 receptor (setting [4]) were 0.65 nM and 0.57 nM, respectively. The “Ratio CB1/CB2” value is 0.87 at human CB1 receptor (setting [3]); 0.87 on human CB1 receptor (Table 3, ratio of Ki values); “binds both the subtypes with almost equal affinity” at human CB1 receptor (Table 3, ratio of Ki values, listed as 32). The “rapid increase in ΔMAP, level reached relative to basal MAP” value in test [1] (12 mg/kg with 2 mg/kg NS-398 (COX-2 inhibitor)) was not above 85%.

Turning to `CC1=CCC2C(C1)c1c(O)cc(C(C)(C)C3CCCCCC3)cc1OC2(C)C` (centres unmarked) [Compound 29, 3-(1-Cycloheptyl-1-methyl-ethyl)-6,6,9-trimethyl-6a,7,10,10a-tetrahydro-6H-benzo[c]chromen-1-ol], the Ki on human CB2 receptor is 0.22 nM; at human CB1 receptor (setting [4]) it was 0.94 nM.

With `CC1=CCC2C(C1)c1c(O)cc(C3(c4ccccc4)SCCS3)cc1OC2(C)C` (centres unmarked) [Compound 34, dithiolanyl-phenyl-Δ^8-THC], the Ki on human CB2 receptor (setting [5]) came out at 17.6 nM; at human CB1 receptor (setting [6]) it was 17.3 nM. The “fold decrease in affinity relative to the 1′-cyclohexyl congener” value on human CB1 receptor is 10 fold.

Consider `CC1=CCC2C(C1)c1c(O)cc(Cc3ccccc3)cc1OC2(C)C` (centres unmarked) [Compound 35, methylene-phenyl-Δ^8-THC], for which the Ki was determined as 85.9 nM at human CB2 receptor (setting [5]) and 67.6 nM on human CB1 receptor (setting [6]). Moreover, the “Ratio CB1/CB2” value on human CB1 receptor (Table 3, ratio of Ki values) turned out to be 0.78.

As for `CC1=CC[C@@H]2[C@@H](C1)c1c(O)cc(C(=O)c3ccccc3)cc1OC2(C)C` [Compound 36, methanone-phenyl-Δ^8-THC], the Ki on human CB2 receptor (setting [5]) was found to be 23.6 nM. At human CB1 receptor, the “Ratio CB1/CB2” value stood at 12.6 and the “fold decrease in binding affinity for the CB1 receptor compared to Δ8-THC” value was approximately 10 fold. Moreover, the Ki on human CB1 receptor (setting [6]) is 297 nM.

Regarding `CC1=CCC2C(C1)c1c(O)cc(C(C)(C)c3ccc(C)cc3)cc1OC2(C)C` (centres unmarked) [Compound 50, 6,6,9-Trimethyl-3-(1-methyl-1-p-tolyl-ethyl)-6a,7,10,10a-tetrahydro-6H-benzo[c]chromen-1-ol], the Ki at human CB2 receptor came out at 0.88 nM; on human CB1 receptor (setting [8]) it was 2.13 nM. The “CB2 Ki” value at human CB2 receptor (setting [7]) is on record as “sub-nanomolar”. Also, the “Ratio CB1/CB2” value on human CB1 receptor (Table 8, ratio of Ki values) is 3.56.

For `CC1=CCC2C(C1)c1c(O)cc(C(C)(C)c3cccc(C)c3)cc1OC2(C)C` (centres unmarked) [Compound 51, 6,6,9-Trimethyl-3-(1-methyl-1-m-tolyl-ethyl)-6a,7,10,10a-tetrahydro-6H-benzo[c]chromen-1-ol], the Ki amounted to 1.13 nM on human CB2 receptor and 2.53 nM on human CB1 receptor (setting [8]). In addition, the “Ratio CB1/CB2” value on human CB1 receptor (Table 8, ratio of Ki values) is 2.24.

Turning to `CC1=CCC2C(C1)c1c(O)cc(C(C)(C)c3ccc(Cl)cc3)cc1OC2(C)C` (centres unmarked) [Compound 52, 3-[1-(4-Chloro-phenyl)-1-methyl-ethyl]-6,6,9-trimethyl-6a,7,10,10a-tetrahydro-6H-benzo[c]chromen-1-ol], the Ki at human CB2 receptor was 12.4 nM; at human CB1 receptor (setting [8]), 76.1 nM.

Consider `CC1=CCC2C(C1)c1c(O)cc(C(C)(C)c3cccc(Cl)c3)cc1OC2(C)C` (centres unmarked) [Compound 53, 3-[1-(3-Chloro-phenyl)-1-methyl-ethyl]-6,6,9-trimethyl-6a,7,10,10a-tetrahydro-6H-benzo[c]chromen-1-ol], for which the Ki on human CB2 receptor came out at 1.68 nM; at human CB1 receptor (setting [8]) it was 18.8 nM.

Turning to `CC1=CCC2C(C1)c1c(O)cc(C(C)(C)c3ccc(F)cc3)cc1OC2(C)C` (centres unmarked) [Compound 54, 3-[1-(4-Fluoro-phenyl)-1-methyl-ethyl]-6,6,9-trimethyl-6a,7,10,10a-tetrahydro-6H-benzo[c]chromen-1-ol], the Ki on human CB2 receptor was determined as 3.54 nM; at human CB1 receptor (setting [8]) it was 2.8 nM. Besides, the “CB2 Ki” value at human CB2 receptor (setting [7]) is listed as “did show enhanced affinity for the CB-2 receptor”. Further, the “Ratio CB1/CB2” value on human CB1 receptor was 0.79.

Compound `CC1=CCC2C(C1)c1c(O)cc(C(C)(C)c3cccs3)cc1OC2(C)C` (centres unmarked) [Compound 55, 6,6,9-Trimethyl-3-(1-methyl-1-thiophen-2-yl-ethyl)-6a,7,10,10a-tetrahydro-6H-benzo[c]chromen-1-ol] yielded a Ki on human CB2 receptor of 0.27 nM. Moreover, the “CB2 Ki” value at human CB2 receptor (setting [7]) is given as “sub-nanomolar”. Besides, on human CB1 receptor, the affinity, expressed as Ki, was 1.08 nM and the “Ratio CB1/CB2” value is recorded as 4.00.

With `CCCCCCC(C)(C)c1cc(O)c2c(c1)OC(C)(C)C1CC=C(C)CC21` (centres unmarked) [DMHT, 1′,1′-dimethylheptyl-Δ^8-THC], the Ki on CB1 was 0.77 nM.

For the compound `CCCCCCC1(c2cc(O)c3c(c2)OC(C)(C)C2CC=C(C)CC32)SCCS1` (centres unmarked) [DTHT, 1′,1′-dithiolaneheptyl-Δ^8-THC], the Ki on CB1 is 0.32 nM.

Consider “gem-dimethyl-phenyl-Δ^8-THC [Compound 33]”, for which the “fold selectivity for the CB2 receptor” value on human CB2 receptor (CB2 over CB1) is reported as 13 fold. The Ki on human CB2 receptor (setting [5]) was determined as 0.91 nM; at human CB2 receptor (Table 8, SEM in parentheses, n≧2 in triplicate, read-out: CB2 Ki), 0.91 nM; at human CB1 receptor (read-out: CB1 Ki), 12.3 nM. In the test on C6 glioma cells, the “time to complete cell death” value was not above 5 h. Further, at human CB1 receptor, the “Ratio CB1/CB2” value was 13.5.
